Measurements from publication PMC2901058 (The Journal of Experimental Medicine, 2010).

Tested on: JurkatCD8-TK3^WT, JurkatCD8-TK3^Gln55His, and JurkatCD8-TK3^Gln55Ala cell lines
Assay: CD69 up-regulation by peptide on C1R-HLA-B*3501 APCs, JurkatCD8-TK3 lines
Assay type: cell-based, human
Conditions: dose–response, peptide presented on C1R–HLA-B*3501; not depicted

## HPVGEADYFEY
  CD69 up-regulation, comparison between cell lines: no significant differences in CD69 up-regulation
